In ChEMBL document CHEMBL5131479, “Phage display-based discovery of cyclic peptides against the broad spectrum bacterial anti-virulence target CsrA” (Eur J Med Chem, 2022):
Where a SMILES comes first, the peptide text is derived from it. Bridges are numbered along the chain shown (N, C = ends). Triazole bridges read from a SMILES are 1,4-linked. [ ]: non-standard residue; d: D form. Ala(indol-2-yl) = N[C@@H](Cc1cc2ccccc2[nH]1)C(=O)O; Dap(N3) = [N-]=[N+]=NC[C@H](N)C(=O)O; Aha = [N-]=[N+]=NCC[C@H](N)C(=O)O; Pra = C#CC[C@H](N)C(=O)O

Tests used:
[1] = Inhibition of 5'-UUCACGGAGAA[flc] mRNA binding to biotinylated His6-tagged Yersinia pseudotuberculosis CsrA measured by fluorescence polarization assay
Carbon storage regulator = Carbon storage regulator (Escherichia coli, UniProt P69913); experiment: Inhibition of 5'-AGACAAGGAUGU[flc] mRNA binding to biotinylated His6-tagged Escherichia coli CsrA measured by fluorescence polarization assay
[2] = Inhibition of 5'-UUCACGGAGAA[flc] mRNA binding to biotinylated His6-tagged Yersinia pseudotuberculosis CsrA measured in presence of 5 mM DTT by fluorescence polarization assay
[3] = Binding affinity towards biotinylated His6-tagged Yersinia pseudotuberculosis CsrA measured by Microscale thermophoresis assay (MST)

Carbon storage regulator, sequence (P69913 whole entry): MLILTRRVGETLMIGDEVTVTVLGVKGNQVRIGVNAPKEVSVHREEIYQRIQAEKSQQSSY

Molecule | IC50 [1] [µM] | IC50 (Carbon storage regulator) [µM] | IC50 [2] [mM] | Kd [3] [µM]
CC[C@H](C)[C@H](NC(=O)[C@H]1CCCCN1C)C(=O)N[C@H](CCc1nc(C(=O)N[C@@H](Cc2ccc(O)cc2)C[C@H](C)C(=O)O)cs1)C(C)C | 11 | – | – | –
CC(=O)N[C@H](C(=O)N[C@H]1CSSC[C@@H](C(=O)N[C@@H](Cc2cc3ccccc3[nH]2)C(=O)O)NC(=O)[C@H](CC(C)C)NC(=O)[C@H](CCC(=O)O)NC(=O)[C@H](CO)NC1=O)C(C)C (Ac-VCSELC[Ala(indol-2-yl)]-OH; disulfide 2-6) | 17.4 | – | – | –
CC(=O)N[C@H](C(=O)N[C@H]1Cc2cnnn2C[C@@H](C(=O)N[C@@H](Cc2c[nH]c3ccccc23)C(N)=O)NC(=O)[C@H](CC(C)C)NC(=O)[C@H](CCC(=O)O)NC(=O)[C@H](CO)NC1=O)C(C)C | 178 | 48.1 | – | –
CC(=O)N[C@@H](C)C(=O)N[C@H]1CSSC[C@@H](C(=O)N[C@@H](Cc2cc3ccccc3[nH]2)C(N)=O)NC(=O)[C@H](CC(C)C)NC(=O)[C@H](CCC(=O)O)NC(=O)[C@H](CO)NC1=O (Ac-ACSELC[Ala(indol-2-yl)]-NH2; disulfide 2-6) | 114 | – | – | –
CC(=O)N[C@H](C(=O)N[C@H]1Cc2cn(nn2)C[C@@H](C(=O)N[C@@H](Cc2c[nH]c3ccccc23)C(N)=O)NC(=O)[C@H](CC(C)C)NC(=O)[C@H](CCC(=O)O)NC(=O)[C@H](CO)NC1=O)C(C)C (Ac-V[Pra]SEL[Dap(N3)]W-NH2; triazole 2-6) | 35.3 | 4.9 | – | –
CC(=O)N[C@H](C(=O)N[C@H]1CSSC[C@@H](C(=O)N[C@@H](Cc2cc3ccccc3[nH]2)C(N)=O)NC(=O)[C@H](CC(C)C)NC(=O)[C@H](CCC(=O)O)NC(=O)[C@H](C)NC1=O)C(C)C (Ac-VCAELC[Ala(indol-2-yl)]-NH2; disulfide 2-6) | > 1000 | – | – | –
CC(=O)N[C@H](C(=O)N[C@H]1CSSC[C@@H](C(N)=O)NC(=O)[C@H](CC(C)C)NC(=O)[C@H](CCC(=O)O)NC(=O)[C@H](CO)NC1=O)C(C)C (Ac-VCSELC-NH2; disulfide 2-6) | > 1000 | – | – | –
CC(=O)N[C@H](C(=O)N[C@H]1CCn2nncc2C[C@@H](C(=O)N[C@@H](Cc2c[nH]c3ccccc23)C(N)=O)NC(=O)[C@H](CC(C)C)NC(=O)[C@H](CCC(=O)O)NC(=O)[C@H](CO)NC1=O)C(C)C | 309 | 83.4 | – | –
CC(=O)N[C@H]1CSSC[C@@H](C(=O)N[C@@H](Cc2cc3ccccc3[nH]2)C(N)=O)NC(=O)[C@H](CC(C)C)NC(=O)[C@H](CCC(=O)O)NC(=O)[C@H](CO)NC1=O (Ac-CSELC[Ala(indol-2-yl)]-NH2; disulfide 1-5) | 128 | – | – | –
CC(C)C[C@@H]1NC(=O)[C@H](CCC(=O)O)NC(=O)[C@H](CO)NC(=O)[C@@H](NC(=O)[C@@H](N)C(C)C)CSSC[C@@H](C(=O)N[C@@H](Cc2cc3ccccc3[nH]2)C(N)=O)NC1=O (H-VCSELC[Ala(indol-2-yl)]-NH2; disulfide 2-6) | 27.6 | – | – | –
CC(=O)N[C@H](C(=O)N[C@H]1CSSC[C@@H](C(=O)N[C@@H](C)C(N)=O)NC(=O)[C@H](CC(C)C)NC(=O)[C@H](CCC(=O)O)NC(=O)[C@H](CO)NC1=O)C(C)C (Ac-VCSELCA-NH2; disulfide 2-6) | > 500 | – | – | –
CC(=O)N[C@H](C(=O)N[C@H]1CSSC[C@@H](C(=O)N[C@@H](Cc2cc3ccccc3[nH]2)C(N)=O)NC(=O)[C@H](CC(C)C)NC(=O)[C@H](C)NC(=O)[C@H](CO)NC1=O)C(C)C (Ac-VCSALC[Ala(indol-2-yl)]-NH2; disulfide 2-6) | 22.8 | – | – | –
CC(=O)N[C@H](C(=O)N[C@H]1Cc2cnnn2CC[C@@H](C(=O)N[C@@H](Cc2c[nH]c3ccccc23)C(N)=O)NC(=O)[C@H](CC(C)C)NC(=O)[C@H](CCC(=O)O)NC(=O)[C@H](CO)NC1=O)C(C)C | 337 | 51.6 | – | –
CC(=O)N[C@H](C(=O)N[C@H]1CSSC[C@@H](C(=O)N[C@@H](Cc2cc3ccccc3[nH]2)C(N)=O)NC(=O)[C@H](C)NC(=O)[C@H](CCC(=O)O)NC(=O)[C@H](CO)NC1=O)C(C)C (Ac-VCSEAC[Ala(indol-2-yl)]-NH2; disulfide 2-6) | 57.9 | – | – | –
CC(=O)N[C@H](C(=O)N[C@H]1Cc2cn(nn2)CC[C@@H](C(=O)N[C@@H](Cc2c[nH]c3ccccc23)C(N)=O)NC(=O)[C@H](CC(C)C)NC(=O)[C@H](CCC(=O)O)NC(=O)[C@H](CO)NC1=O)C(C)C (Ac-V[Pra]SEL[Aha]W-NH2; triazole 2-6) | 76 | 3.4 | – | –
CC(=O)N[C@H](C(=O)N[C@H]1CSSC[C@@H](C(=O)N[C@@H](Cc2cc3ccccc3[nH]2)C(N)=O)NC(=O)[C@H](CC(C)C)NC(=O)[C@H](CCC(=O)O)NC(=O)[C@H](CO)NC1=O)C(C)C (Ac-VCSELC[Ala(indol-2-yl)]-NH2; disulfide 2-6) | 6.9 | 182 | > 1 | 10.5
Ac-VASELAW-NH2 | > 1000 | – | – | –
CC(=O)N[C@H](C(=O)N[C@H]1Cn2cc(nn2)C[C@@H](C(=O)N[C@@H](Cc2c[nH]c3ccccc23)C(N)=O)NC(=O)[C@H](CC(C)C)NC(=O)[C@H](CCC(=O)O)NC(=O)[C@H](CO)NC1=O)C(C)C (Ac-V[Dap(N3)]SEL[Pra]W-NH2; triazole 2-6) | 92.8 | 6.8 | – | –
